The source of these data is paper PMC10674657, “Quinazolin-4-one/3-cyanopyridin-2-one Hybrids as Dual Inhibitors of EGFR and BRAF^V600E: Design, Synthesis, and Antiproliferative Activity” (Pharmaceuticals, 2023).

Data set [1] has as its system Panc-1 human pancreatic cancer cell line. Put plainly: Antiproliferative assay, Panc-1. To be noted: Homo sapiens, PANC-1, read-out: Antiproliferative Activity IC50 ± SEM, Panc-1.
Data set [2] has as its system four cancer cell lines (A-549, MCF-7, Panc-1, HT-29). Put plainly: Antiproliferative assay, average over four cancer cell lines (GI50). To be noted: Homo sapiens, read-out: Average IC50 (GI50).
The test system of data set [3] is A-549 human lung carcinoma cell line. Put plainly: Antiproliferative assay, A-549. To be noted: Homo sapiens, A549, read-out: Antiproliferative Activity IC50 ± SEM, A-549.
The nature of data set [4]: Cell viability (cytotoxicity) MTT assay in non-tumorigenic MCF-10A cells. To be noted: human, MCF-10A mammary epithelial cells. It counts as cell-based, human. A general note: Tetrazolium dyes change colour on reduction, which living cells bring about.
Data set [5] concerns HT-29 human colon cancer cell line. The data set is described as follows: Antiproliferative assay, HT-29. Conditions: Homo sapiens, HT-29, read-out: Antiproliferative Activity IC50 ± SEM, HT-29.
Data set [6] relates to MCF-7 human breast adenocarcinoma cell line. The data set is described as follows: Antiproliferative assay, MCF-7. To be noted: Homo sapiens, MCF7, read-out: Antiproliferative Activity IC50 ± SEM, MCF-7.
Data set [7] has as its target T1, BRAF^V600E (Mus musculus, UniProt P28028, V585E).
T1 construct: Mouse full-length GST-tagged; purchased Invitrogen PV3849
The data set is described as follows: BRAF V600E kinase inhibitory assay. It counts as biochemical. Conditions: for IC50: BRAF V600E, mean ± SEM, read-out: BRAF Inhibition IC50 ± SEM; for fold less potent than Erlotinib, BRAF^V600E: ratio of IC50 to Erlotinib. An excerpt: Mouse full-length GST-tagged
developed using a phosphor screen.

The next data set deals with EGFR (Homo sapiens, UniProt P00533). The data set is described as follows: EGFR-TK inhibitory assay. To be noted: for fold less potent than Erlotinib, EGFR: ratio of IC50 to Erlotinib.
Chain of EGFR (P00533 669-1210): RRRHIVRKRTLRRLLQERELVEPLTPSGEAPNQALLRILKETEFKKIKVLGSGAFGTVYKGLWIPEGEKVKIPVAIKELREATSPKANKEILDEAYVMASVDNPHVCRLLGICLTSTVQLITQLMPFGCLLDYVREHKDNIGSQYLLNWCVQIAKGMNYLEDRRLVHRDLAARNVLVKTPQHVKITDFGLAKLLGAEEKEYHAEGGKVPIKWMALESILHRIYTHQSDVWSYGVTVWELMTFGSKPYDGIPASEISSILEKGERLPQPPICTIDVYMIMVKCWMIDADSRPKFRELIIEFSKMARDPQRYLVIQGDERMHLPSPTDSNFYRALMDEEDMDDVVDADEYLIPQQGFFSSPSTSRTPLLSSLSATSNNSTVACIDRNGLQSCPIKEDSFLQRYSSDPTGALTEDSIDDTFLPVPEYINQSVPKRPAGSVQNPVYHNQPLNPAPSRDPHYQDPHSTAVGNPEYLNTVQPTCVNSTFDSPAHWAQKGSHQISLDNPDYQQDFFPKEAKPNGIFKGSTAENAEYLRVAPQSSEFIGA
Data set [8] relates to BRAF^V600E. Conditions: cited from earlier work.

T1 sequence (P28028 whole entry V585E): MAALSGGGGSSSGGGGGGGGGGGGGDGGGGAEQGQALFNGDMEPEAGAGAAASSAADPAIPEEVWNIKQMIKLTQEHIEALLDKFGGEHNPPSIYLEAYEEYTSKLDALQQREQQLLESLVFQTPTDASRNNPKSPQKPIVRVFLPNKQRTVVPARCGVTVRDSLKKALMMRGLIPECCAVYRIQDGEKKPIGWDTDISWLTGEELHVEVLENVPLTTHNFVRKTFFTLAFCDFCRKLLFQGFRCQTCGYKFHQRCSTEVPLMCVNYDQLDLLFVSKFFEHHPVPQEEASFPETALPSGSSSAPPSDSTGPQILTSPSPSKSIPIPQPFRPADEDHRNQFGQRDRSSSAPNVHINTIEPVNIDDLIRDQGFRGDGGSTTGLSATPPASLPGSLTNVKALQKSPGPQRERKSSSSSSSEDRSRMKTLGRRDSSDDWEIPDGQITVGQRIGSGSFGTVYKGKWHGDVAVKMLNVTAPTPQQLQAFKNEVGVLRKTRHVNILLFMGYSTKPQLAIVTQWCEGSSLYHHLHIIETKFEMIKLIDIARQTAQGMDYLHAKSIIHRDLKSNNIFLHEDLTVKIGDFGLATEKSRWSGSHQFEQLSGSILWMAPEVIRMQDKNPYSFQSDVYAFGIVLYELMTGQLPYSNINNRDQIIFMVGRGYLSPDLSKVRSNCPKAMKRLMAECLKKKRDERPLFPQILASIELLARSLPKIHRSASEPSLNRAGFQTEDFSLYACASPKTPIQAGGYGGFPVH

For orientation: IC50 means the concentration needed to halve the response being measured. The term viability denotes the share of living cells, or the viability signal relative to a control. Lower therefore signals more harm to the cells. With `CCn1c(SCC(=O)Nc2ccc(-c3cc(-c4ccccc4)c(C#N)c(=O)[nH]3)cc2)nc2ccccc2c1=O` [Compound 7, N-(4-(5-Cyano-6-oxo-4-phenyl-1,6-dihydropyridin-2-yl)phenyl)-2-((3-ethyl-4-oxo-3,4-dihydroquinazolin-2-yl)thio)acetamide], the IC50 in data set [1] turned out to be 9300 ± 800 nM; in data set [2], 9300 nM; in data set [3], 9200 ± 800 nM; in [5], 9800 ± 900 nM; in data set [6] it was 9100 ± 800 nM. In [4], this molecule came in with a viability at 4 days, 50 µM of 90%.
As to `CCn1c(SCC(=O)Nc2ccc(-c3cc(-c4ccc(OC)cc4)c(C#N)c(=O)[nH]3)cc2)nc2ccccc2c1=O` [Compound 8, N-(4-(5-Cyano-4-(4-methoxyphenyl)-6-oxo-1,6-dihydropyridin-2-yl)phenyl)-2-((3-ethyl-4-oxo-3,4-dihydroquinazolin-2-yl)thio)acetamide], the IC50 was 220 ± 15 nM on BRAF^V600E [7]; 1700 ± 100 nM in data set [1]; 1600 nM in data set [2]; 1500 ± 100 nM in data set [3]; 1700 ± 100 nM in data set [5]; 160 ± 12 nM against EGFR. Also, the IC50 in data set [6] stood at 1400 ± 100 nM. This molecule also returned a viability at 4 days, 50 µM in data set [4] of 89%.
In the case of `CCn1c(SCC(=O)Nc2ccc(-c3cc(-c4ccc(Cl)cc4)c(C#N)c(=O)[nH]3)cc2)nc2ccccc2c1=O` [Compound 9, N-(4-(4-(4-Chlorophenyl)-5-cyano-6-oxo-1,6-dihydropyridin-2-yl)phenyl)-2-((3-ethyl-4-oxo-3,4-dihydroquinazolin-2-yl)thio)acetamide], the 50% inhibitory concentration (IC50) at BRAF^V600E [7] worked out at 290 ± 20 nM; in data set [1], 2000 ± 100 nM; in data set [2], 1800 nM; in data set [3] it was 1800 ± 100 nM; in data set [5], 2000 ± 100 nM; against EGFR, 190 ± 15 nM. Besides, the IC50 in data set [6] was found to be 1600 ± 100 nM. The viability at 4 days, 50 µM in data set [4] worked out at 96%.
In the case of `CCn1c(SCC(=O)Nc2ccc(-c3cc(-c4ccc(Br)cc4)c(C#N)c(=O)[nH]3)cc2)nc2ccccc2c1=O` [Compound 10, N-(4-(4-(4-Bromophenyl)-5-cyano-6-oxo-1,6-dihydropyridin-2-yl)phenyl)-2-((3-ethyl-4-oxo-3,4-dihydroquinazolin-2-yl)thio)acetamide], the IC50 in [1] worked out at 2600 ± 200 nM; in data set [2], 2500 nM; in [3], 2400 ± 200 nM; in data set [5], 2700 ± 200 nM; in [6] it was 2200 ± 450 nM. The viability at 4 days, 50 µM in data set [4] is 88%.
`CCn1c(SCC(=O)Nc2ccc(-c3cc(-c4ccc(F)cc4)c(C#N)c(=O)[nH]3)cc2)nc2ccccc2c1=O` [Compound 11, N-(4-(5-Cyano-4-(4-fluorophenyl)-6-oxo-1,6-dihydropyridin-2-yl)phenyl)-2-((3-ethyl-4-oxo-3,4-dihydroquinazolin-2-yl)thio)acetamide]: the IC50 in [1] amounted to 3800 ± 300 nM; in data set [2] it was 3800 nM; in data set [3], 3700 ± 300 nM; in data set [5], 4000 ± 300 nM; in data set [6] it was 3600 ± 300 nM. This molecule showed a viability at 4 days, 50 µM in data set [4] of 91%.
In the case of `N#Cc1c(-c2ccccc2)cc(-c2ccc(NC(=O)CSc3nc4ccccc4c(=O)n3-c3ccccc3)cc2)[nH]c1=O` [Compound 12, N-(4-(5-Cyano-6-oxo-4-phenyl-1,6-dihydropyridin-2-yl)phenyl)-2-((4-oxo-3-phenyl-3,4-dihydroquinazolin-2-yl)thio)acetamide], the IC50 in data set [1] came to 7800 ± 700 nM; in data set [2] it was 7500 nM; in data set [3], 7500 ± 600 nM; in data set [5], 7700 ± 700 nM; in [6] it was 7200 ± 700 nM. Further, the viability at 4 days, 50 µM in data set [4] was determined as 86%.
As for `COc1ccc(-c2cc(-c3ccc(NC(=O)CSc4nc5ccccc5c(=O)n4-c4ccccc4)cc3)[nH]c(=O)c2C#N)cc1` [Compound 13, N-(4-(5-Cyano-4-(4-methoxyphenyl)-6-oxo-1,6-dihydropyridin-2-yl)phenyl)-2-((4-oxo-3-phenyl-3,4-dihydroquinazolin-2-yl)thio)acetamide], the half-inhibitory concentration (IC50) was 3400 ± 300 nM in data set [1]; 3300 nM in data set [2]; 3200 ± 300 nM in data set [3]; 3500 ± 300 nM in [5]; 3100 ± 300 nM in data set [6]. The same molecule returned a viability at 4 days, 50 µM in data set [4] of 87%.
Turning to `N#Cc1c(-c2ccc(Cl)cc2)cc(-c2ccc(NC(=O)CSc3nc4ccccc4c(=O)n3-c3ccccc3)cc2)[nH]c1=O` [Compound 14, N-(4-(4-(4-Chlorophenyl)-5-cyano-6-oxo-1,6-dihydropyridin-2-yl)phenyl)-2-((4-oxo-3-phenyl-3,4-dihydroquinazolin-2-yl)thio)acetamide], the IC50 in [1] is 4200 ± 400 nM; in [2], 4100 nM; in [3], 4100 ± 400 nM; in data set [5], 4200 ± 400 nM; in [6] it was 3900 ± 400 nM. The viability at 4 days, 50 µM in data set [4] is 89%.
For the molecule `N#Cc1c(-c2ccc(Br)cc2)cc(-c2ccc(NC(=O)CSc3nc4ccccc4c(=O)n3-c3ccccc3)cc2)[nH]c1=O` [Compound 15, N-(4-(4-(4-Bromophenyl)-5-cyano-6-oxo-1,6-dihydropyridin-2-yl)phenyl)-2-((4-oxo-3-phenyl-3,4-dihydroquinazolin-2-yl)thio)acetamide], the IC50 came out at 5000 ± 400 nM in data set [1]; 4800 nM in [2]; 4700 ± 400 nM in data set [3]; 4900 ± 400 nM in data set [5]; 4600 ± 400 nM in data set [6]. In addition, the viability at 4 days, 50 µM in data set [4] turned out to be 87%.
In the case of `N#Cc1c(-c2ccc(F)cc2)cc(-c2ccc(NC(=O)CSc3nc4ccccc4c(=O)n3-c3ccccc3)cc2)[nH]c1=O` [Compound 16, N-(4-(5-Cyano-4-(4-fluorophenyl)-6-oxo-1,6-dihydropyridin-2-yl)phenyl)-2-((4-oxo-3-phenyl-3,4-dihydroquinazolin-2-yl)thio)acetamide], the IC50 is 5100 ± 500 nM in [1]; 4900 nM in data set [2]; 4800 ± 500 nM in [3]; 5100 ± 500 nM in [5]; 4700 ± 400 nM in [6]. The viability at 4 days, 50 µM in [4] came out at 89%.
On to `C=CCn1c(SCC(=O)Nc2ccc(-c3cc(-c4ccccc4)c(C#N)c(=O)[nH]3)cc2)nc2ccccc2c1=O` [Compound 17, 2-((3-Allyl-4-oxo-3,4-dihydroquinazolin-2-yl)thio)-N-(4-(5-cyano-6-oxo-4-phenyl-1,6-dihydropyridin-2-yl)phenyl)acetamide], for which the half-inhibitory concentration (IC50) in data set [1] turned out to be 8900 ± 700 nM; in [2] it was 8600 nM; in data set [3], 8400 ± 700 nM; in data set [5] it was 9000 ± 700 nM; in data set [6], 8100 ± 700 nM. This molecule had a viability at 4 days, 50 µM in data set [4] of 89%.
As for `C=CCn1c(SCC(=O)Nc2ccc(-c3cc(-c4ccc(OC)cc4)c(C#N)c(=O)[nH]3)cc2)nc2ccccc2c1=O` [Compound 18, 2-((3-Allyl-4-oxo-3,4-dihydroquinazolin-2-yl)thio)-N-(4-(5-cyano-4-(4-methoxyphenyl)-6-oxo-1,6-dihydropyridin-2-yl)phenyl)acetamide], the IC50 at BRAF^V600E [7] stood at 140 ± 10 nM; in data set [1] it was 1300 ± 100 nM; in data set [2], 1200 nM; in [3], 1100 ± 100 nM; in [5] it was 1300 ± 100 nM; against EGFR, 110 ± 10 nM. Also, in data set [6], the IC50 came out at 1000 ± 100 nM. Besides, the “fold less potent than Erlotinib, BRAF^V600E” value at BRAF^V600E [7] is reported as 2 fold. The molecule further had a viability at 4 days, 50 µM in [4] of 90%. Also, the “fold less potent than Erlotinib, EGFR” value at EGFR was 1.4 fold.
On to `C=CCn1c(SCC(=O)Nc2ccc(-c3cc(-c4ccc(Cl)cc4)c(C#N)c(=O)[nH]3)cc2)nc2ccccc2c1=O` [Compound 19, 2-((3-Allyl-4-oxo-3,4-dihydroquinazolin-2-yl)thio)-N-(4-(4-(4-chlorophenyl)-5-cyano-6-oxo-1,6-dihydropyridin-2-yl)phenyl)acetamide], for which the IC50 at BRAF^V600E [7] came out at 190 ± 12 nM; in data set [1] it was 1600 ± 100 nM; in data set [2], 1400 nM; in data set [3], 1300 ± 100 nM; in [5], 1600 ± 100 nM; against EGFR, 140 ± 11 nM. Besides, the IC50 in data set [6] is 1200 ± 80 nM. For the same molecule, the “fold less potent than Erlotinib, BRAF^V600E” value at BRAF^V600E [7] was 3 fold. Also, in [4], the viability at 4 days, 50 µM was 91%. Also, the “fold less potent than Erlotinib, EGFR” value on EGFR is listed as 1.8 fold.
On to `C=CCn1c(SCC(=O)Nc2ccc(-c3cc(-c4ccc(F)cc4)c(C#N)c(=O)[nH]3)cc2)nc2ccccc2c1=O` [Compound 21, 2-((3-Allyl-4-oxo-3,4-dihydroquinazolin-2-yl)thio)-N-(4-(5-cyano-4-(4-fluorophenyl) -6-oxo-1,6-dihydropyridin-2-yl)phenyl)acetamide], for which the IC50 in data set [1] amounted to 2200 ± 200 nM; in data set [2], 2100 nM; in data set [3], 2100 ± 200 nM; in [5], 2200 ± 100 nM; in data set [6] it was 1900 ± 100 nM. The viability at 4 days, 50 µM in data set [4] was found to be 87%.
Turning to `COc1cccc2c1C(=O)c1c(O)c3c(c(O)c1C2=O)C[C@@](O)(C(=O)CO)C[C@@H]3O[C@H]1C[C@H](N)[C@H](O)[C@H](C)O1` [Doxorubicin, reference compound], the concentration for half-maximal inhibition (IC50) is 1400 ± 100 nM in data set [1]; 1100 nM in data set [2]; 1200 ± 100 nM in data set [3]; 1000 ± 100 nM in [5]; 900 ± 100 nM in data set [6].
Take `C#Cc1cccc(Nc2ncnc3cc(OCCOC)c(OCCOC)cc23)c1` [Erlotinib]: in the data set with BRAF^V600E [8], the IC50 is […].
